Results: ChEMBL document CHEMBL1828549, “Novel C-4'' modified azithromycin analogs with remarkably enhanced activity against erythromycin-resistant Streptococcus pneumoniae: the synthesis and antimicrobial evaluation” (2011)
In brackets after ≈: the same amount, converted by molar mass.

What was measured:
Format in all cases: functional
Staphylococcus aureus [1] = assay: Antibacterial activity against […] Staphylococcus aureus ATCC 29213 by the broth microdilution method
Streptococcus pneumoniae [2] = assay: Antibacterial activity against erythromycin-resistant Streptococcus pneumoniae A22072 expressing mef gene by the broth microdilution method
Streptococcus pneumoniae [3] = assay: Antibacterial activity against erythromycin-resistant Streptococcus pneumoniae AB11 expressing erm and mef gene by the broth microdilution method
Staphylococcus aureus [4] = assay: Antibacterial activity against penicillin-resistant Staphylococcus aureus by the broth microdilution method
Staphylococcus aureus [5] = assay: Antibacterial activity against erythromycin-susceptible Staphylococcus aureus ATCC 25923 by the broth microdilution method
Streptococcus pneumoniae [6] = assay: Antibacterial activity against erythromycin-susceptible Streptococcus pneumoniae ATCC 49619 by the broth microdilution method
Streptococcus pneumoniae [7] = assay: Antibacterial activity against erythromycin-resistant Streptococcus pneumoniae B1 expressing erm gene by the broth microdilution method

SMILES | MIC (Staphylococcus aureus [1]) | MIC (Streptococcus pneumoniae [2]) | MIC (Streptococcus pneumoniae [3]) | MIC (Staphylococcus aureus [4]) | MIC (Staphylococcus aureus [5]) | MIC (Streptococcus pneumoniae [6]) | MIC (Streptococcus pneumoniae [7])
CC[C@H]1OC(=O)[C@H](C)[C@@H](O[C@H]2C[C@@](C)(OC)[C@@H](OC(=O)NNC(=O)c3ccc(F)cc3)[C@H](C)O2)[C@H](C)[C@@H](O[C@@H]2O[C@H](C)C[C@H](N(C)C)[C@H]2O)[C@](C)(O)C[C@@H](C)CN(C)[C@H](C)[C@H]2OC(=O)O[C@@]21C | 32 µg/mL (≈ 33.5 µM) | 1 µg/mL (≈ 1.05 µM) | 64 µg/mL (≈ 67 µM) | 4 µg/mL (≈ 4.19 µM) | 4 µg/mL (≈ 4.19 µM) | 4 µg/mL (≈ 4.19 µM) | 32 µg/mL (≈ 33.5 µM)
CC[C@H]1OC(=O)[C@H](C)[C@@H](O[C@H]2C[C@@](C)(OC)[C@@H](OC(=O)NNC(=O)c3ccccc3OC)[C@H](C)O2)[C@H](C)[C@@H](O[C@@H]2O[C@H](C)C[C@H](N(C)C)[C@H]2O)[C@](C)(O)C[C@@H](C)CN(C)[C@H](C)[C@H]2OC(=O)O[C@@]21C | 16 µg/mL (≈ 16.5 µM) | 0.5 µg/mL (≈ 0.517 µM) | 32 µg/mL (≈ 33.1 µM) | 16 µg/mL (≈ 16.5 µM) | 4 µg/mL (≈ 4.14 µM) | 1 µg/mL (≈ 1.03 µM) | 8 µg/mL (≈ 8.27 µM)
CC[C@H]1OC(=O)[C@H](C)[C@@H](O[C@H]2C[C@@](C)(OC)[C@@H](OC(=O)NCCNC(=O)c3ccc(F)cc3)[C@H](C)O2)[C@H](C)[C@@H](O[C@@H]2O[C@H](C)C[C@H](N(C)C)[C@H]2O)[C@](C)(O)C[C@@H](C)CN(C)[C@H](C)[C@H]2OC(=O)O[C@@]21C | 16 µg/mL (≈ 16.3 µM) | 1 µg/mL (≈ 1.02 µM) | 32 µg/mL (≈ 32.5 µM) | 2 µg/mL (≈ 2.03 µM) | 16 µg/mL (≈ 16.3 µM) | 1 µg/mL (≈ 1.02 µM) | 4 µg/mL (≈ 4.07 µM)
CC[C@H]1OC(=O)[C@H](C)[C@@H](O[C@H]2C[C@@](C)(OC)[C@@H](OC(=O)NNC(=O)c3ccc(Cl)cc3Cl)[C@H](C)O2)[C@H](C)[C@@H](O[C@@H]2O[C@H](C)C[C@H](N(C)C)[C@H]2O)[C@](C)(O)C[C@@H](C)CN(C)[C@H](C)[C@H]2OC(=O)O[C@@]21C | 16 µg/mL (≈ 15.9 µM) | 0.25 µg/mL (≈ 0.249 µM) | 16 µg/mL (≈ 15.9 µM) | 16 µg/mL (≈ 15.9 µM) | 4 µg/mL (≈ 3.98 µM) | 1 µg/mL (≈ 0.994 µM) | 4 µg/mL (≈ 3.98 µM)
CC[C@H]1OC(=O)[C@H](C)[C@@H](O[C@H]2C[C@@](C)(OC)[C@@H](O)[C@H](C)O2)[C@H](C)[C@@H](O[C@@H]2O[C@H](C)C[C@H](N(C)C)[C@H]2O)[C@](C)(O)C[C@@H](C)C(=O)[C@H](C)[C@@H](O)[C@]1(C)O [ERYTHROMYCIN] | 0.12 µg/mL (≈ 0.164 µM) | 8 µg/mL (≈ 10.9 µM) | 256 µg/mL (≈ 349 µM) | 0.25 µg/mL (≈ 0.341 µM) | 0.06 µg/mL (≈ 0.0818 µM) | 0.03 µg/mL (≈ 0.0409 µM) | 128 µg/mL (≈ 174 µM)
CC[C@H]1OC(=O)[C@H](C)[C@@H](O[C@H]2C[C@@](C)(OC)[C@@H](OC(=O)NNC(=O)c3ccc(OC)c(OC)c3)[C@H](C)O2)[C@H](C)[C@@H](O[C@@H]2O[C@H](C)C[C@H](N(C)C)[C@H]2O)[C@](C)(O)C[C@@H](C)CN(C)[C@H](C)[C@H]2OC(=O)O[C@@]21C | 4 µg/mL (≈ 4.01 µM) | 0.25 µg/mL (≈ 0.251 µM) | 64 µg/mL (≈ 64.2 µM) | 1 µg/mL (≈ 1 µM) | 4 µg/mL (≈ 4.01 µM) | 1 µg/mL (≈ 1 µM) | 32 µg/mL (≈ 32.1 µM)
CC[C@H]1OC(=O)[C@H](C)[C@@H](O[C@H]2C[C@@](C)(OC)[C@@H](OC(=O)NCCCCNC(=O)c3ccc(F)cc3)[C@H](C)O2)[C@H](C)[C@@H](O[C@@H]2O[C@H](C)C[C@H](N(C)C)[C@H]2O)[C@](C)(O)C[C@@H](C)CN(C)[C@H](C)[C@H]2OC(=O)O[C@@]21C | 16 µg/mL (≈ 15.8 µM) | 8 µg/mL (≈ 7.91 µM) | 64 µg/mL (≈ 63.3 µM) | 32 µg/mL (≈ 31.6 µM) | 8 µg/mL (≈ 7.91 µM) | 0.5 µg/mL (≈ 0.494 µM) | 32 µg/mL (≈ 31.6 µM)
CC[C@H]1OC(=O)[C@H](C)[C@@H](O[C@H]2C[C@@](C)(OC)[C@@H](OC(=O)NCCNC(=O)c3ccc(OC)cc3)[C@H](C)O2)[C@H](C)[C@@H](O[C@@H]2O[C@H](C)C[C@H](N(C)C)[C@H]2O)[C@](C)(O)C[C@@H](C)CN(C)[C@H](C)[C@H]2OC(=O)O[C@@]21C | 16 µg/mL (≈ 16.1 µM) | 4 µg/mL (≈ 4.02 µM) | 64 µg/mL (≈ 64.3 µM) | 4 µg/mL (≈ 4.02 µM) | 4 µg/mL (≈ 4.02 µM) | 4 µg/mL (≈ 4.02 µM) | 32 µg/mL (≈ 32.2 µM)
CC[C@H]1OC(=O)[C@H](C)[C@@H](O[C@H]2C[C@@](C)(OC)[C@@H](OC(=O)NCCNC(=O)c3ccc(OC)c(OC)c3)[C@H](C)O2)[C@H](C)[C@@H](O[C@@H]2O[C@H](C)C[C@H](N(C)C)[C@H]2O)[C@](C)(O)C[C@@H](C)CN(C)[C@H](C)[C@H]2OC(=O)O[C@@]21C | 32 µg/mL (≈ 31.2 µM) | 4 µg/mL (≈ 3.9 µM) | 64 µg/mL (≈ 62.4 µM) | 8 µg/mL (≈ 7.8 µM) | 4 µg/mL (≈ 3.9 µM) | 2 µg/mL (≈ 1.95 µM) | 32 µg/mL (≈ 31.2 µM)
CC[C@H]1OC(=O)[C@H](C)[C@@H](O[C@H]2C[C@@](C)(OC)[C@@H](OC(=O)NCCNC(=O)c3ccc(C)cc3)[C@H](C)O2)[C@H](C)[C@@H](O[C@@H]2O[C@H](C)C[C@H](N(C)C)[C@H]2O)[C@](C)(O)C[C@@H](C)CN(C)[C@H](C)[C@H]2OC(=O)O[C@@]21C | 16 µg/mL (≈ 16.3 µM) | 0.25 µg/mL (≈ 0.255 µM) | 16 µg/mL (≈ 16.3 µM) | 4 µg/mL (≈ 4.08 µM) | 4 µg/mL (≈ 4.08 µM) | 1 µg/mL (≈ 1.02 µM) | 8 µg/mL (≈ 8.17 µM)
